Counter-ions that a name gives are not always drawn. Like-named read-outs stand apart in the source and are kept apart here.
How the values were obtained:
[1] = target: T1, human placental CYP19 (Homo sapiens, UniProt P11511); assay: IC50 of CYP19 (human placental microsomes); format: biochemical
T1 construct: The enzyme was obtained from the microsome fraction of fresh human placenta; from tissue; host or cells: human placenta, microsomal fraction
T1 sequence (P11511 1-503): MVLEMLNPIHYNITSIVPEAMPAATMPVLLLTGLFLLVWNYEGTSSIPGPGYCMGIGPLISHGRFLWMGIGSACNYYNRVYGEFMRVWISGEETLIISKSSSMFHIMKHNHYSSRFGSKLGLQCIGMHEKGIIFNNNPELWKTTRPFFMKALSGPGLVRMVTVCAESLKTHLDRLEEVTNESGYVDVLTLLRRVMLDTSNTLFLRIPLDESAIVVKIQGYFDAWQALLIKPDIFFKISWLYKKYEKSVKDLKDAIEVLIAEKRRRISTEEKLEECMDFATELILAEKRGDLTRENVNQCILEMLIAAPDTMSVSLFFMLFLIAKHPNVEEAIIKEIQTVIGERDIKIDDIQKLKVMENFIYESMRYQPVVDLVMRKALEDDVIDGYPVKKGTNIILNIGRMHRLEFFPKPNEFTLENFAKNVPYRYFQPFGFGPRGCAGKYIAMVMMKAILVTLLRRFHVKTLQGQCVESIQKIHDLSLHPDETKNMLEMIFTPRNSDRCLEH
Procedure: The isolated microsomes were suspended in a minimum volume of phosphate buffer (0.05 M; pH 7.4; […]). In addition, DTT (10 mM) and EDTA (1 mM) were added to protect the enzyme from degradation reactions.
[…] […] The compounds to be tested were dissolved in DMSO and diluted with buffer to the desired concentration. The final DMSO concentration of the control and inhibitor incubations was about 20%. Each vessel was preincubated in a water bath at 30° C. for 5 min. The reaction was started by adding the microsomal protein (0.1 mg). The total volume of each mixture was 200 μl. After 14 min, the reaction was quenched by adding 200 μl of ice cold 1 mM HgCl2 solution. Two hundred microliters of a 2% aqueous suspension of dextran-coated charcoal, DCC) was added for absorbing the steroids, and the vessels were shaken for 20 min. Thereafter, the charcoal was centrifuged off at 1500 g for 5 min. The radioactive water present in the supernatant (^3H2O) was assayed by scintillation measurement using an LKB-Wallac beta counter. The calculation of the IC50 values was effected by a semilogarithmic plot of the percent inhibition against the inhibitor concentration.

[2] = target: T2, human CYP11B2 (Homo sapiens, UniProt P19099); assay: Screening test in transgenic fission yeast (S. pombe PE1) expressing human CYP11B2; format: cell-based; design: expressed in transfected cells
T2 sequence (P19099 25-503): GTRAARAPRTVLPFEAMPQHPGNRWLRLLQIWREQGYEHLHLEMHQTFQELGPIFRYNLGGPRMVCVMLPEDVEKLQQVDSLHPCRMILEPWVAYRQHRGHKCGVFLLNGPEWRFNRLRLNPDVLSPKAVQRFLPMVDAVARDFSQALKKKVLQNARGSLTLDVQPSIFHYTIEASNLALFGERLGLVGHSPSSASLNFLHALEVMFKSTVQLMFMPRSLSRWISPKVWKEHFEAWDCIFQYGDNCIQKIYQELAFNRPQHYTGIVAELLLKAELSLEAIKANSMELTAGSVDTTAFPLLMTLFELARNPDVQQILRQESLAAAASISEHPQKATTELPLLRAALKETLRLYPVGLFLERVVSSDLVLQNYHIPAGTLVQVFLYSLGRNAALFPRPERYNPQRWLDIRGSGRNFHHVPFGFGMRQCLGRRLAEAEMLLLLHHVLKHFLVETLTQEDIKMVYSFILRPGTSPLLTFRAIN
Procedure: 492.5 μl of this cell suspension was admixed with 5 μl of inhibitor solution (50 μM of the compound to be tested in ethanol or DMSO) and incubated at 32° C. for 15 min. Controls were admixed with 5 μl of ethanol. […] The test was quenched by extracting the sample with 500 μl of EtOAc. After centrifugation (10,000 g, 2 min), the EtOAc phase was removed and evaporated to dryness. […] The reaction of the substrate to form corticosterone was analyzed by HPTLC (see below).
The quantification of the spots for the substrate deoxycorticosterone and the products corticosterone (and, if detectable, 18-hydroxycorticosterone and aldosterone) was effected with the related evaluation program AIDA. […] The calculation of the conversion rate was effected according to equation 1.
(§1) The plate was developed twice with the mobile solvent chloroform:methanol:water (300:20:1). Unlabeled 11-deoxycorticosterone and corticosterone were applied as a reference for the CYP11B1 reaction. For the CYP11B2 reaction, 11-deoxycorticosterone, corticosterone, 18-hydroxycorticosterone and aldosterone were used as references. The detection of the unlabeled references was effected at 260 nm. Subsequently, imaging plates (BAS MS2340, for ^14C samples, Raytest, Straubenhardt, Germany) were exposed to the HPTLC plates for 48 h. The imaging plates were scanned with the phosphoimager system Fuji FLA 3000 (Raytest, Straubenhardt, Germany), and the steroids were quantified.

[3] = target: T2, human CYP11B2; assay: V79 MZh 11B2 cells inhibition test; format: cell-based; design: expressed in transfected cells; host or cells: V79 MZh11B2 (Chinese hamster lung fibroblasts); conditions: for IC50: hamster fibroblasts which express human CYP11B2, deoxycorticosterone substrate 100 nM, read-out: IC50 V79 11B2 hCYP11B2
Procedure: Both cell lines were cultured in DMEM^+ containing […] and the antibiotics penicillin and streptomycin (10%) for protection from bacterial contamination. The cells were passaged every 2-3 days after treatment with trypsin/EDTA because the doubling rate was 1-2 days depending on the number of cells. […] When there was further need, freshly thawed cells were employed.
Thereafter, the plate was stored at 37° C. and […] in a CO2 incubator. The V79 MZh 11B1 cells were incubated for 120 min, and the V79 MZh 11B2 cells were incubated for 40 min. Controls without inhibitor were treated in the same way. The enzyme reactions were quenched by extracting the supernatant with 500 μl of EtOAc. The samples were centrifuged (10,000 g, 2 min), the solvent was removed and evaporated.
For V79 MZh11B2, the conversion rate was obtained in accordance with equation 3: […]
It was calculated by determining the percent inhibition for at least 3 different inhibitor concentrations, which must all be in the linear range of the sigmoidal IC50 curve (log C/% inhibition).
The calculation was effected by linear regression. The values determined were used only if they formed a straight line with a reliability of […].
as §1

[4] = human placental CYP19, testosterone substrate 2.5 μM
[5] = S. pombe cells which express human CYP11B2, deoxycorticosterone substrate 100 nM, inhibitor 500 nM
[6] = S. pombe cells which express human CYP11B2, deoxycorticosterone substrate 100 nM, inhibitor 500 nM, read-out: % Inhibition human hCYP11B2
[7] = read-out: % Inhibition human hCYP11B2

| Compound | IC50 [1, 4] | IC50 [3] | inhibition at 0.5 µM [2, 6] | other results |
| --- | --- | --- | --- | --- |
| 5-[(E)-(6-Chloro-3,4-dihydronaphth-1(2H)-ylidene)methyl]-1H-imidazolium chloride [Compound 46a] | 120 nM | 47.3 nM |  | % Inhibition human hCYP11B2 [2, 5]: 48% |
| 5-[(Z)-3,4-Dihydronaphth-1(2H)-ylidenemethyl]-1H-imidazolium oxalate [Compound 41b] | 190 nM |  |  | % Inhibition human hCYP11B2 [2, 5]: 82% |
| 5-[(Z)-(5-Bromo-2,3-dihydro-1H-indene-1-ylidene)methyl]-1H-imidazolium oxalate [Compound 49b] |  | 10.3 nM |  | % Inhibition human hCYP11B2 [2, 5]: 76% |
| 5-[(Z)-(5-Chloro-2,3-dihydro-1H-indene-1-ylidene)methyl]-1H-imidazolium oxalate [Compound 48b] | 39 nM |  |  | % Inhibition human hCYP11B2 [2, 5]: 80%; Selectivity factor IC50 (CYP11B1)/IC50 (CYP11B2) ([3]; V79 cells expressing human CYP11B1 or CYP11B2): five times |
| C(=C1/CCc2ccccc21)/c1cccnc1 [Compound 1a, 3-[(E)-2,3-Dihydro-1H-indane-1-ylidenemethyl]pyridine Hydrochloride] | 2040 nM | 10.6 nM | 82% |  |
| C(=C1\CCc2ccccc21)/c1cccnc1.Cl [Compound 1b, 3-[(Z)-2,3-Dihydro-1H-indane-1-ylidenemethyl]pyridine Hydrochloride] |  | 92 nM |  | IC50 [1]: 3550 nM; % Inhibition human hCYP11B2 [2, 5]: 83% |
| C(=C1\CCc2ccccc21)/c1ccncc1 [Compound 2b, 4-[(Z)-2,3-Dihydro-1H-indane-1-ylidenemethyl]pyridine oxalate] | 12700 nM | 931 nM |  |  |
| C(=C1/CCCc2ccccc21)/c1cccnc1.Cl [Compound 3a, 3-[(E)-3,4-Dihydronaphthalene-1(2H)-ylidenemethyl]pyridine Hydrochloride] | 6580 nM | 21.6 nM | 70% |  |
| C(=C1\CCCc2ccccc21)/c1cccnc1.Cl [Compound 3b, 3-[(Z)-3,4-Dihydronaphthalene-1(2H)-ylidenemethyl]pyridine Hydrochloride] | 3790 nM | 141 nM | 68% |  |
| Fc1ccc2c(c1)CC/C2=C\c1cccnc1 [Compound 5a, 3-[(E)-(5-Fluoro-2,3-dihydro-1H-indane-1-ylidene)methyl]pyridine Hydrochloride] | 2540 nM | 6.8 nM | 88% |  |
| Fc1ccc2c(c1)CC/C2=C/c1cccnc1 [Compound 5b, 3-[(Z)-(5-Fluoro-2,3-dihydro-1H-indane-1-ylidene)methyl]pyridine Hydrochloride] | 2490 nM | 10.8 nM |  | inhibition at 0.5 µM [2, 7]: 89%; inhibition at 0.5 µM ([2]; read-out: S. pombe PE1 CYP11B2 DOC % inhibition): 88.6% |
| Fc1ccc2c(c1)CC/C2=C\c1ccncc1 [Compound 6a, 4-[(E)-(5-Fluoro-2,3-dihydro-1H-indane-1-ylidene)methyl]pyridine Hydrochloride] | 1550 nM | 1100 nM |  | inhibition at 0.5 µM [2, 7]: 37% |
| Fc1ccc2c(c1)CC/C2=C/c1ccncc1 [Compound 6b, 4-[(Z)-(5-Fluoro-2,3-dihydro-1H-indane-1-ylidene)methyl]pyridine Hydrochloride] | 800 nM | 34 nM |  | inhibition at 0.5 µM [2, 7]: 77% |
| Clc1ccc2c(c1)CC/C2=C\c1cccnc1 [Compound 7a, 3-[(E)-(5-Chloro-2.3-dihydro-1H-indane-1-ylidene)methyl]pyridine Hydrochloride] | 4260 nM | 26.2 nM | 75% |  |
| Clc1ccc2c(c1)CC/C2=C/c1cccnc1 [Compound 7b, 3-[(Z)-(5-Chloro-2,3-dihydro-1H-indane-1-ylidene)methyl]pyridine Hydrochloride] | 4050 nM | 72.7 nM | 68% |  |
| Clc1ccc2c(c1)CC/C2=C\c1ccncc1 [Compound 8a, 4-[(E)-(5-Chloro-2,3-dihydro-1H-indane-1-ylidene)methyl]pyridine Hydrochloride] | 5430 nM | 1520 nM |  | inhibition at 0.5 µM [2, 7]: 38% |
| Brc1ccc2c(c1)CC/C2=C\c1ccncc1 [Compound 10a, 4-[(E)-(5-Bromo-2,3-dihydro-1H-indane-1-ylidene)methyl]pyridine Hydrochloride] |  | 2640 nM |  | inhibition at 0.5 µM [2, 7]: 17% |
| C(=C1/CCCc2ccccc21)/c1cnc[nH]1 [Compound 41a, 5-[(E)-3,4-Dihydronaphth-1(2H)-ylidenemethyl]-1H-imidazole] | 226 nM |  | 80% |  |
| C(=C1/CCc2ccccc21)/c1cnc[nH]1 [Compound 42a, 5-[(E)-2,3-Dihydro-1H-indane-1-ylidenemethyl]-1H-imidazole] |  | 41 nM | 77% |  |
| C(=C1\CCc2ccccc21)/c1cnc[nH]1 [Compound 42b, 5-[(Z)-2,3-Dihydro-1H-ind-1-ylidenemethyl]-1H-imidazolium oxalate] |  | 11 nM | 81% |  |
| Cl.Clc1ccc2c(c1)CC/C2=C\c1cnc[nH]1 [Compound 48a, 5-[(E)-(5-Chloro-2,3-dihydro-1H-indene-1-ylidene)methyl]-1H-imidazolium chloride] | 330 nM |  | 79% |  |
| Brc1ccc2c(c1)CC/C2=C\c1cnc[nH]1.Cl [Compound 49a, 5-[(E)-(5-Bromo-2,3-dihydro-1H-indene-1-ylidene)methyl]-1H-imidazolium chloride] |  | 92.8 nM | 68% |  |

Reference: patent US20090105278A1, “Selective inhibitors of human corticosteroid syntheses” (Universitat Des Saarlandes, priority 2004, published 2009)
